# In patent publication US20110195911A1, “SYNTHETIC ANALOGS OF THE JUXTAMEMBRANE DOMAIN OF IGF1R AND USES THEREOF” (THE UNITED STATES OF AMERICA,AS REPRESENTED BY THE …, priority 2008, published 2011):
# Where a SMILES comes first, the peptide text is derived from it. [ ]: non-standard residue; d: D form. The star is where a group is joined. Palmitoyl = CCCCCCCCCCCCCCCC(=O)*
# Tested on: MCF-7 breast cancer cells
# Assay: MTT cell toxicity assay in MCF-7 breast cancer cells
# Type: cell-based
# Conditions: MCF-7 cells, MTT; for GI50 / TGI: final 0.5% FBS, two days with compound; for TGI: concentration of total growth inhibition (cytostatic); for growth inhibition / potency in MCF-7 cells (in words): comparison with related peptides
# Method: Cell Toxicity Assays: MCF-7 (breast cancer), T47D (breast cancer), Colo 205 (colon cancer), JM-1 (rat hepatoma), Sk Me1-2 (melanoma), PLC (human hepatoma), and HepG2 (human hepatoma) cells were obtained from American Type Cell Culture Collection. MCF-7 cells were grown in RPMI medium supplemented with 10% Fetal Bovine Serum. The rest of the cell lines were grown in DMEM medium supplemented with 10% Fetal Bovine Serum.
# MTT 43-(4,5-Dimethylthiazol-2-yl)-2,5-diphenyltetrazolium) cell assay was performed using MCF-7 breast cancer cells. For the assay, cells were seeded into 96 well plates in medium containing 1% Fetal Bovine Serum and 100 μL of a cell suspension containing 5000 cells per well. Wells containing medium-only, and wells containing untreated cells, served as controls.
# Seeded cells were allowed to attach and grow in the wells for 24 hours. A 5 mM stock solution of each peptide was made by dissolving approximately 1 mg of peptide in appropriate amount of DMSO. 2 mL dilutions were used to make 0.2 μM, 1.0 μM, 5.0 μM, and 10.0 μM concentration solutions of the compounds in serum-free medium. 100 μl, of the resulting 2× solutions were added to the corresponding wells to provide a final FBS concentration of 0.5% and 0.1 μM, 0.5 μM, 2.5 μM, and 5.0 μM dilutions of inhibitors. The cells were incubated with test compounds for two days. The control wells were given 100 μL of medium to ensure maximum similarity to the test wells so that all of the wells had 200 μL of medium during the growth period. An individual plate was made for Time Zero, to which the dye was added at the time of addition of compounds.
# An alternative potency assay was used to test compounds in MCF-7 (breast cancer), T47D (breast cancer), Colo 205 (colon cancer), JM-1 (rat hepatoma), Sk MeI-2 (melanoma), PLC (human hepatoma), and HepG2 (human hepatoma) cells. Cells were suspended at a concentration of approximately 5000 cells per 100 μL of suspension in a 5% FBS RPMI medium. The cells were seeded into 96-count wells and incubated over night. After one day's incubation, the 5% FBS medium was aspirated and replaced with 100 μL of no serum RPMI medium containing 1 mg Bovine Serum Albumin (BSA) per 1 mL RPMI. Various concentrations of the test compounds were prepared by dilution in no-serum medium containing 1 mg BSA/mL. 75 μL of the test compound solutions were added to the wells, and the cells were allowed to incubate for 15-20 minutes, after which time 25 μL of human recombinant IGF-1 (Peprotech) solution was added to the wells to attain final concentrations of 10 ng IGF-1/mL medium. The control wells were given 175 μL of no-serum medium in addition to 25 μL of IGF-1 solution. An individual plate was made for time zero, in which the medium was also aspirated and replaced with 175 μL of no-serum medium and 25 μL of IGF-1. 15 μL of MTT dye was added and let incubate for 4 hours, after which time a stop stop solubilization solution was added. The stop solution lysed the cells and released the dye reduced by the remaining living cells. Absorbance of the wells at 544 nm was determined by a FLUOstar/POLARstar Galaxy (BMG Lab Technologies GmbH) microplate reader. The activity was calculated from the data using the formula: 100×[(T−T0)/(C−T0)] for T>T0 and 100×[(T−T0)/T0] for T<T0, wherein T0 corresponds to cell density at the time of drug addition, “T” is the optical density of the test well after a 48-h period of exposure to test drug, and “C” is the control optical density. The GI50 measures the growth inhibitory power of the test agent, and is defined as the concentration of test drug where 100×(T−T0)/(C−T0)=50. The TGI is the concentration of test drug where 100×(T−T0)/(C−T0)=0. Thus, the TGI signifies a cytostatic effect.
SMILES,GI50,TGI,growth inhibition / potency in MCF-7 cells (in words),cell killing activity (in words)
"CCCCCCCCCCCCCCCC(=O)N[C@@H](CO)C(=O)N[C@@H](CCCNC(=N)N)C(=O)N[C@@H](CC(C)C)C(=O)NCC(=O)N[C@@H](CC(N)=O)C(=O)NCC(=O)N[C@H](C(=O)N[C@@H](CC(C)C)C(=O)N[C@@H](Cc1ccc(O)cc1)C(N)=O)C(C)C [Peptide 19, Pal-SRLGNGVLY-NH2] (Palmitoyl-SRLGNGVLY-NH2)",150 ± 50 nM,2000 ± 100 nM,gradual reduction in potency,
"CCCCCCCCCCCCCCCC(=O)N[C@@H](CCCNC(=N)N)C(=O)N[C@@H](CC(C)C)C(=O)NCC(=O)N[C@@H](CC(N)=O)C(=O)NCC(=O)N[C@H](C(=O)N[C@@H](CC(C)C)C(=O)N[C@@H](Cc1ccc(O)cc1)C(N)=O)C(C)C [Peptide 20, Pal-RLGNGVLY-NH2] (Palmitoyl-RLGNGVLY-NH2)",200 ± 6 nM,>5000 nM,gradual reduction in potency,
"CCCCCCCCCCCCCCCC(=O)N[C@@H](C(=O)N[C@H](CO)C(=O)N[C@H](C)C(=O)N[C@H](Cc1ccc(O)cc1)C(=O)N[C@H](CC(C)C)C(=O)N[C@@H](C(=O)NCC(=O)N[C@H](CC(N)=O)C(=O)NCC(=O)N[C@H](CC(C)C)C(=O)N[C@H](CCCNC(=N)N)C(=O)N[C@H](CO)C(=O)N[C@H](CC(N)=O)C(=O)N[C@H](CC(N)=O)C(=O)N[C@H](CCCNC(=N)N)C(N)=O)C(C)C)C(C)C [Peptide 21, Pal-VSAYLVGNGLRSNNR-NH2] (Palmitoyl-[dV][dS][dA][dY][dL][dV]G[dN]G[dL][dR][dS][dN][dN][dR]-NH2)",,100 ± 5 nM,did not improve or diminish the inhibitory activity,
"CCCCCCCCCCCCCCCC(=O)N[C@H](Cc1ccc(O)cc1)C(=O)N[C@H](CC(C)C)C(=O)N[C@@H](C(=O)NCC(=O)N[C@H](CC(N)=O)C(=O)NCC(=O)N[C@H](CC(C)C)C(=O)N[C@H](CCCNC(=N)N)C(=O)N[C@H](CO)C(=O)N[C@H](CC(N)=O)C(=O)N[C@H](CC(N)=O)C(=O)N[C@H](CCCNC(=N)N)C(N)=O)C(C)C [Peptide 22, Pal-YLVGNGLRSNNR-NH2] (Palmitoyl-[dY][dL][dV]G[dN]G[dL][dR][dS][dN][dN][dR]-NH2)",,500 ± 25 nM,equipotent to peptide 18,enhanced cell killing activity
CCCCCCCCCCCCCCCC(=O)N[C@@H](Cc1c[nH]cn1)C(=O)N[C@@H](CCCNC(=N)N)C(=O)N[C@@H](CCCCN)C(=O)N[C@@H](CCCNC(=N)N)C(=O)N[C@@H](CC(N)=O)C(=O)N[C@@H](CC(N)=O)C(=O)N[C@@H](CO)C(=O)N[C@@H](CCCNC(=N)N)C(=O)N[C@@H](CC(C)C)C(=O)NCC(=O)N[C@@H](CC(N)=O)C(=O)NCC(=O)N[C@H](C(=O)N[C@@H](CC(C)C)C(=O)N[C@@H](Cc1ccc(O)cc1)C(=O)N[C@@H](C)C(=O)N[C@@H](CO)C(=O)N[C@H](C(=O)N[C@@H](CC(N)=O)C(=O)N1CCC[C@H]1C(N)=O)C(C)C)C(C)C [Peptide 23] (Palmitoyl-HRKRNNSRLGNGVLYASVNP-NH2),100 ± 50 nM,>5000 nM,increased the potency,
CCCCCCCCCCCCCCCC(=O)N[C@H](C(=O)N[C@@H](Cc1ccccc1)C(=O)N[C@@H](Cc1c[nH]cn1)C(=O)N[C@@H](CCCNC(=N)N)C(=O)N[C@@H](CCCCN)C(=O)N[C@@H](CCCNC(=N)N)C(=O)N[C@@H](CC(N)=O)C(=O)N[C@@H](CC(N)=O)C(=O)N[C@@H](CO)C(=O)N[C@@H](CCCNC(=N)N)C(=O)N[C@@H](CC(C)C)C(=O)NCC(=O)N[C@@H](CC(N)=O)C(=O)NCC(=O)N[C@H](C(=O)N[C@@H](CC(C)C)C(=O)N[C@@H](Cc1ccc(O)cc1)C(=O)N[C@@H](C)C(=O)N[C@@H](CO)C(=O)N[C@H](C(=O)N[C@@H](CC(N)=O)C(N)=O)C(C)C)C(C)C)C(C)C [Peptide 24] (Palmitoyl-VFHRKRNNSRLGNGVLYASVN-NH2),100 ± 50 nM,1100 ± 100 nM,,
"CCCCCCCCCCCCCCCC(=O)N[C@@H](CCCCN)C(=O)N[C@@H](CCCNC(=N)N)C(=O)N[C@@H](CC(N)=O)C(=O)N[C@@H](CC(N)=O)C(=O)N[C@@H](CO)C(=O)N[C@@H](CCCNC(=N)N)C(=O)N[C@@H](CC(C)C)C(=O)NCC(=O)N[C@@H](CC(N)=O)C(=O)NCC(=O)N[C@H](C(=O)N[C@@H](CC(C)C)C(=O)N[C@@H](Cc1ccc(O)cc1)C(N)=O)C(C)C [Peptide 27, Pal-KRNNSRLGNGVLY-NH2] (Palmitoyl-KRNNSRLGNGVLY-NH2)",1100 ± 60 nM,2500 ± 500 nM,,
"CCCCCCCCCCCCCCCC(=O)N[C@@H](CCCNC(=N)N)C(=O)N[C@@H](CC(N)=O)C(=O)N[C@@H](CC(N)=O)C(=O)N[C@@H](CO)C(=O)N[C@@H](CCCNC(=N)N)C(=O)N[C@@H](CC(C)C)C(=O)NCC(=O)N[C@@H](CC(N)=O)C(=O)NCC(=O)N[C@H](C(=O)N[C@@H](CC(C)C)C(=O)N[C@@H](Cc1ccccc1)C(N)=O)C(C)C [Peptide 29, Pal-RNNSRLGNGVLF-NH2] (Palmitoyl-RNNSRLGNGVLF-NH2)",100 ± 5 nM,1200 ± 50 nM,,
"CCCCCCCCCCCCCCCC(=O)N[C@@H](CCCNC(=N)N)C(=O)N[C@@H](CC(N)=O)C(=O)N[C@@H](CC(N)=O)C(=O)N[C@@H](CO)C(=O)N[C@@H](CCCNC(=N)N)C(=O)N[C@@H](CC(C)C)C(=O)NCC(=O)N[C@@H](CC(N)=O)C(=O)NCC(=O)N[C@H](C(=O)N[C@@H](CC(C)C)C(N)=O)C(C)C [Peptide 30, Pal-RNNSRLGNGVL-NH2] (Palmitoyl-RNNSRLGNGVL-NH2)",1700 ± 50 nM,3700 ± 50 nM,,
"CCCCCCCCCCCCCCCC(=O)N[C@@H](CCCNC(=N)N)C(=O)N[C@@H](CC(N)=O)C(=O)N[C@@H](CC(N)=O)C(=O)N[C@@H](CO)C(=O)N[C@@H](CCCNC(=N)N)C(=O)N[C@@H](CC(C)C)C(=O)NCC(=O)N[C@@H](CC(N)=O)C(=O)NCC(=O)N[C@H](C(=O)N[C@@H](CC(C)C)C(=O)N[C@@H](Cc1ccc(O)cc1)C(=O)N[C@@H](C)C(N)=O)C(C)C [Peptide 33, Pal-RNNSRLGNGVLYA-NH2] (Palmitoyl-RNNSRLGNGVLYA-NH2)",100 ± 50 nM,>5000 nM,,
"CCCCCCCCCCCCCCCC(=O)N[C@@H](CCCNC(=N)N)C(=O)N[C@@H](CC(N)=O)C(=O)N[C@@H](CC(N)=O)C(=O)N[C@@H](CO)C(=O)N[C@@H](CCCNC(=N)N)C(=O)N[C@@H](CC(C)C)C(=O)NCC(=O)N[C@@H](CC(N)=O)C(=O)NCC(=O)N[C@H](C(=O)N[C@@H](CC(C)C)C(=O)N[C@@H](Cc1ccc(O)cc1)C(=O)N[C@@H](C)C(=O)N[C@@H](CO)C(N)=O)C(C)C [Peptide 34, Pal-RNNSRLGNGVLYAS-NH2] (Palmitoyl-RNNSRLGNGVLYAS-NH2)",40 ± 1 nM,>5000 nM,,
"CCCCCCCCCCCCCCCC(=O)N[C@@H](CCCNC(=N)N)C(=O)N[C@@H](CC(N)=O)C(=O)N[C@@H](CC(N)=O)C(=O)N[C@@H](CO)C(=O)N[C@@H](CCCNC(=N)N)C(=O)N[C@@H](CC(C)C)C(=O)NCC(=O)N[C@@H](CC(N)=O)C(=O)NCC(=O)N[C@H](C(=O)N[C@@H](CC(C)C)C(=O)N[C@@H](Cc1ccc(O)cc1)C(=O)N[C@@H](C)C(=O)N[C@@H](CO)C(=O)N[C@H](C(N)=O)C(C)C)C(C)C [Peptide 35, Pal-RNNSRLGNGVLYASV-NH2] (Palmitoyl-RNNSRLGNGVLYASV-NH2)",50 ± 1 nM,2500 ± 500 nM,,
